The values below come from patent US9751851B2, “Molecules and compositions that inhibit gram negative bacteria and their uses” (THE TRUSTEES OF PRINCETON UNIVERSITY, priority 2013, dated 2017).

The IC50 is the concentration at which inhibition is half-maximal.

The subject of one assay is wild-type P. aeruginosa PA14. The assay is described as follows: microbe, parasite or virus in culture. Format: cell-based. The conditions noted are these: Pseudomonas aeruginosa, PA14, 17 h, read-out: Efficacy (%), Table 1; reduction of pyocyanin vs WT P. aeruginosa PA14: 0% = WT level, 100% = background medium, negative = agonist. As for the experimental part: Methods. The oxidized form of pyocyanin imparts a green color to P. aeruginosa cultures, making the production of pyocyanin convenient to monitor by UV/Vis absorbance. Overnight P. aeruginosa cultures were subcultured into 5 mL fresh medium at 1:1000 dilution. Synthetic compounds were assayed at 100 μM for end point assays and at concentrations ranging from 200 nM to 200 μM for titrations following 17 hr of aerobic growth with shaking at 37° C. Cells were separated from culture fluids via centrifugation at 13,000 rpm for 15 min. Culture fluids were passed through 0.22 μm syringe driven filters (Millipore). Cell-free culture fluids were analyzed for pyocyanin using wavelength scans on a Beckman Coulter DU-800 spectrophotometer from 200 nm to 800 nm 695 nm was chosen for graphical representation. Titration data were fit with a variable-slope sigmoidal dose-response curve using GraphPad Prism to determine the IC50 values.
The compounds of the first library were assayed in wild-type (WT) P. aeruginosa PA14. Pyocyanin was used as a read-out for quorum sensing activity based on its absorbance at 695 nm. The efficacy of the compounds at reducing pyocyanin levels was calculated with respect to WT levels of pyocyanin, where WT levels of pyocyanin would lead to a 0% efficacy, and an absorbance equal to the background medium would lead to a 100% efficacy. Agonists that increase pyocyanin production have negative efficacy values.
With `CCCCCCCCCC(=O)CC(=O)Nc1ccccn1` [S1, 3OC12-2-aminopyridine], the inhibition at 100 µM turned out to be 44 ± 13%.
For `CCCCCCCCCC(=O)CC(=O)Nc1cccnc1` [S2, 3OC12-3-aminopyridine], the inhibition at 100 µM worked out at 10 ± 9%.
`CCCCCCCCCC(=O)CC(=O)Nc1ccncn1` [S3, 3OC12-4-aminopyrimidine]: the inhibition at 100 µM came out at 64 ± 0.8%.
Still for that read-out and setting: the result for `CCCCCCCCCC(=O)CC(=O)Nc1cnccn1` [S4, 3OC12-2-aminopyrazine] reads 21 ± 13%; that for `CCCCCCCCCC(=O)CC(=O)Nc1ncccn1` [S5, 3OC12-2-aminopyrimidine], -0.51 ± 4%.
Same read-out and setting: the result for `CCCCCCCCCCCC(=O)Nc1ccccn1` [S6, C12-2-aminopyridine] reads 55 ± 3%.
Same read-out and setting: the result for `CCCCCCCCCCCC(=O)Nc1cccnc1` [S7, C12-3-aminopyridine] reads 34 ± 3%; that for `CCCCCCCCCCCC(=O)Nc1ccncc1` [S8, C12-4-aminopyridine], 28 ± 11%.
Turning to `CCCCCCCCCCCC(=O)Nc1ccncn1` [S9, C12-4-aminopyrimidine], the inhibition at 100 µM came to 55 ± 8%.
Same read-out and setting: the result for `CCCCCCCCCCCC(=O)Nc1cnccn1` [S10, C12-2-aminopyrazine] reads -38 ± 3%; that for `CCCCCCCCCCCC(=O)Nc1ncccn1` [S11, C12-2-aminopyrimidine], 23 ± 3%.

Staying with this assay, now noted: Pseudomonas aeruginosa, PA14, 17 h, read-out: Efficacy (%), Table 2; reduction of pyocyanin vs WT P. aeruginosa PA14: 0% = WT level, 100% = background medium, negative = agonist.
`CCCCCCCCCCCC(=O)Nc1ccnc(C)c1` [S12, C12-4-amino-2-methylpyridine]: the inhibition at 100 µM was -19 ± 3%.
Still for that read-out and setting: the result for `CCCCCCCCCCCC(=O)Nc1cc(C)nc2ccccc12` [S13, C12-4-amino-2-methylquinoline] reads -24 ± 2%; that for `CCCCCCCCCCCC(=O)Nc1ccncc1C(F)(F)F` [S14, C12-4-amino-3-trifluoromethylpyridine], -17 ± 2%.
Same read-out and setting: the result for `CCCCCCCCCCCC(=O)Nc1ccnc(OC)c1` [S15, C12-4-amino-2-methoxypyridine] reads -5.1 ± 1%.
On to `CCCCCCCCCC(=O)CC(=O)Nc1ccnc(OC)c1` [S16, 3OC12-4-amino-2-methoxypyridine], for which the inhibition at 100 µM turned out to be 24 ± 1%.
For `CCCCCCCCCCCC(=O)Nc1ccnc(Br)c1` [S17, C12-4-amino-2-bromopyridine], the inhibition at 100 µM was 34 ± 5%.
The same measure, in the same setting: the result for `CCCCCCCCCC(=O)CC(=O)Nc1ccnc(F)c1` [S18, 3OC12-4-amino-2-fluoropyridine] reads -8.5 ± 3%.
Same read-out and setting: then `CCCCCCCCCCCC(=O)Nc1c(F)c(F)nc(F)c1F` [S19, C12-4-amino-2,3,5,6-tetrafluoropyridine], with -12 ± 3%; and `CCCCCCCCCCCC(=O)Nc1ccnc(C(F)(F)F)c1` [S20, C12-4-amino-2-trifluoromethylpyridine], with 27 ± 3%.
The same measure, in the same setting: the result for `CCCCCCCCCCCCNC(=O)c1ccncc1` [S21, C12-isonicotinic amide] reads 13 ± 3%.
With `CCCCCCCCCCCC(=O)NCc1ccncc1` [S22, C12-4-(aminomethyl)pyridine], the inhibition at 100 µM was determined as 7.7 ± 5%.
The same measure, in the same setting: the result for `CCCCCCCCCCCC(=O)OCc1ccncc1` [S23, C12-4-(hydroxymethyl)pyridine] reads -15 ± 4%; that for `CCCCCCCCCCCC(=O)N1CCN(c2ccncc2)CC1` [S24, C12-4-(piperazine)pyridine], -42 ± 2%.
Still for that read-out and setting: the result for `CCCCCCCCCCCC(=O)Nc1ccc2[nH]ccc2c1` [S25, C12-5-aminoindole] reads -11 ± 3%; that for `CCCCCCOC(=O)C1COc2ccccc21` (centres unmarked) [S28, C6-dihydrobenzofuran ester], 1.5 ± 8%; that for `CCCCCCCCCCCC(=O)O/N=C1\COc2ccccc21` [S29, C12-dihydrobenzofuran acylhydroxylamine], 12 ± 3%.
Take `CCCCCCCCCCCC(=O)Nc1ccc2c(c1)c1ccccc1n2CC` [S30, C12-3-amino-1-ethylcarbazole]: the inhibition at 100 µM is -1 ± 3%.
Still for that read-out and setting: then `CCCCCCCCCC(=O)CC(=O)Nc1ccc2c(c1)c1ccccc1n2CC` [S31, 3OC12-3-amino-1-ethylcarbazole], with 9.3 ± 4%; and `CCCCCCCCCCCCNC(=O)c1cc2ccccc2n1C` [S32, C12-2-amido-1-methylindole], with -9.2 ± 4%.
On the same count and under the same terms, then `CCCCCCCCCCCCNC(=O)c1c[nH]c2ccccc12` [S33, C12-3-amidoindole], with 4.4 ± 3%; and `CCCCCCCCCCCCNC(=O)Cc1c[nH]c2ccccc12` [S34, C12-3-(methylamido)indole], with 0.6 ± 4%; and `CCCCCCCCCCCC(=O)Nc1ccc2oc3c(c2c1)CCCC3` [S35, C12-2-amino-tetrahydrodibenzofuran], with 6.1 ± 4%.

The same assay, now with this note: Pseudomonas aeruginosa, PA14, 17 h, read-out: Efficacy (%), Table 3; reduction of pyocyanin vs WT P. aeruginosa PA14: 0% = WT level, 100% = background medium.
`O=C(COc1cccc(Br)c1)Nc1ccnc(F)c1` [S41, 4-amino-2-fluoropyridine-C6-3-bromophenoxyhybrid]: the inhibition at 100 µM worked out at 31 ± 6%.
Same read-out and setting: the result for `COc1cc(NC(=O)CC(=O)COc2cccc(Br)c2)ccn1` [S46, 4-amino-2-methoxypyridine-3OC6-3-bromophenoxyhybrid] reads 40%; that for `O=C(COc1cccc(Br)c1)Nc1ccncn1` [S51, 4-aminopyrimidine-C6-3-bromophenoxyhybrid], 27 ± 7%.
On the same count and under the same terms, then `COc1cc(NC(=O)COc2cccc(Br)c2)ncn1` [S52, 4-amino-6-methoxypyrimidine-C6-3-bromophenoxyhybrid], with 41%; and `COc1nccc(NC(=O)COc2cccc(Br)c2)n1` [S53, 4-amino-2-methoxypyrimidine-C6-3-bromophenoxyhybrid], with 16 ± 5%.
Consider `COc1cc(NC(=O)COc2cccc(Br)c2)nc(OC)n1` [S54, 4-amino-2,6-dimethoxypyrimidine-C6-3-bromophenoxyhybrid], for which the inhibition at 100 µM came out at 15 ± 7%.
On the same count and under the same terms, the result for `O=C(COc1cccc(Br)c1)Nc1ccnc(Cl)c1` [S55, 4-amino-2-chloropyridine-C6-3-bromophenoxyhybrid] reads 89%.

Still in this assay, the particulars now being: Table 3; reduction of pyocyanin vs WT P. aeruginosa PA14: 0% = WT level, 100% = background medium.
Take `O=C(COc1cccc(Br)c1)Nc1ccnc(F)c1` [S40, 4-amino-2-fluoropyridine-C4-3-bromophenoxyhybrid]: the “Efficacy (%)” value is reported as 32 ± 4%.
The same measure, in the same setting: the result for `COc1cc(NC(=O)CC(=O)COc2cccc(Br)c2)ccn1` [S46, 4-amino-2-methoxypyridine-3OC6-3-bromophenoxyhybrid] reads 40 ± 6%; that for `COc1cc(NC(=O)COc2cccc(Br)c2)ncn1` [S52, 4-amino-6-methoxypyrimidine-C6-3-bromophenoxyhybrid], 41 ± 9%; that for `O=C(COc1cccc(Br)c1)Nc1ccnc(Cl)c1` [S55, 4-amino-2-chloropyridine-C6-3-bromophenoxyhybrid], 89 ± 5%.

The same assay, now with this note: Table 3; reduction of pyocyanin vs WT P. aeruginosa PA14: 0% = WT level, 100% = background medium; listed as Table 3 entry 6.
In the case of `COc1cc(NC(=O)COc2cccc(Br)c2)ccn1` [S44, 4-amino-2-methoxypyridine-C5-3-bromophenoxyhybrid], the “Efficacy (%)” value was found to be 81%.

The assay is the same for the next values; noted with them: Table 3; reduction of pyocyanin vs WT P. aeruginosa PA14: 0% = WT level, 100% = background medium; listed as Table 3 entry 10.
Consider `COc1cc(NC(=O)COc2cccc(Br)c2)ccn1` [S50, 4-amino-2-methoxypyridine-C8-3-bromophenoxyhybrid], for which the “Efficacy (%)” value came out at 60%.

Staying with this assay, now noted: Table 3; reduction of pyocyanin vs WT P. aeruginosa PA14: 0% = WT level, 100% = background medium; listed as drawing 59.
Regarding `O=C(COc1cccc(Br)c1)Nc1ccncc1` [S37, 4-aminopyridine-C4-3-bromophenoxyhybrid], the “Efficacy (%)” value was found to be 21 ± 5%.

Still in this assay, the particulars now being: Table 3; reduction of pyocyanin vs WT P. aeruginosa PA14: 0% = WT level, 100% = background medium; listed as drawing 60.
Consider `O=C(COc1cccc(Br)c1)Nc1ccncc1` [S39, 4-aminopyridine-C6-3-bromophenoxyhybrid], for which the “Efficacy (%)” value is reported as 53 ± 1%.

The assay is the same for the next values; noted with them: Table 3; reduction of pyocyanin vs WT P. aeruginosa PA14: 0% = WT level, 100% = background medium; listed as drawing 63.
Consider `COc1cc(NC(=O)COc2cccc(Br)c2)ccn1` [S42, 4-amino-2-methoxypyridine-C4-3-bromophenoxyhybrid], for which the “Efficacy (%)” value is reported as 20 ± 1%.

Staying with this assay, now noted: Table 3; reduction of pyocyanin vs WT P. aeruginosa PA14: 0% = WT level, 100% = background medium; listed as drawing 64.
Consider `COc1cc(NC(=O)COc2cccc(Br)c2)ccn1` [S44, 4-amino-2-methoxypyridine-C5-3-bromophenoxyhybrid], for which the “Efficacy (%)” value amounted to 81 ± 6%.

The same assay, now with this note: Table 3; reduction of pyocyanin vs WT P. aeruginosa PA14: 0% = WT level, 100% = background medium; listed as drawing 68.
For `COc1cc(NC(=O)COc2cccc(Br)c2)ccn1` [S50, 4-amino-2-methoxypyridine-C8-3-bromophenoxyhybrid], the “Efficacy (%)” value was determined as 60 ± 2%.

Still in this assay, the particulars now being: Table 3; reduction of pyocyanin vs WT P. aeruginosa PA14: 0% = WT level, 100% = background medium; listed as drawing 74.
For `O=C(COc1cccc(Br)c1)Nc1ccnc(C(F)(F)F)c1` [S56, 4-amino-2-trifluoromethylpyridine-C4-3-bromophenoxyhybrid], the “Efficacy (%)” value was determined as 43 ± 8%.

The assay is the same for the next values; noted with them: WT P. aeruginosa PA14, 17 hr growth, titration; read-out: IC50 for inhibition of pyocyanin production.
In the case of `O=C(CCCOc1cccc(Br)c1)N[C@@H]1CCSC1=O` [(R)-mBTL], the IC50 was found to be 100 µM.
Same read-out and setting: the result for `O=C(CCCOc1cccc(Br)c1)N[C@H]1CCSC1=O` [(S)-mBTL] reads 4 µM.

Still in this assay, the particulars now being: wild-type P. aeruginosa PA14; end point assays at 100 μM.
Regarding `O=C(CCCCOc1cccc(Br)c1)NC1CCSC1=O` (centres unmarked) [5C-mBTL], the “inhibition of pyocyanin production (in words)” value is on record as “most effective inhibitor of pyocyanin production”.
Take `O=C(CCc1ccc(Br)cc1)N[C@H]1CCOC1=O` [B7, reference compound]: the “inhibition of pyocyanin production (in words)” value is “limited or no inhibition”.
